The test system of assay [1] is C57BL/6 mice with telogen hair. In words: Hair growth promotion on shaved dorsal skin. The following applies: vs vehicle. The format is in vivo. On the procedure: In order to examine the hair growth promoting efficacy, 8-week-old C57BL/6 mice with telogen hair having pink dorsal skin were used. The mice were anesthetized, then the hair on the back of the mouse was removed using an electric hair clipper for animals. Amuc_1409 was dissolved in vehicle (50% ethanol, 20% propylene glycol, 30% water) at a concentration of 3.2 μM and then applied to the skin of the hair-removed site by 200 μL per animal using a pipette once a day for 21 days, and PEP006 to PEP013 were each dissolved in vehicle (50% ethanol, 20% propylene glycol, 30% water) at a concentration of 30 μM and then applied to the skin of the hair-removed site by 200 μL per animal using a pipette once a day for 28 days. For the control group, the same volume of vehicle (50% ethanol, 20% propylene glycol, 30% water) was applied to the skin.
Skin color and hair density were visually observed, scored according to the scoring criteria in Table 5, and graphed (Table 5).
After the experiment, the test animals were sacrificed, then the skin tissue of the mouse was fixed in 10% NBF at room temperature for 24 hours or more, and then embedded in paraffin to prepare a 5 μm-thick section, and the section was stained with (H&E) hematoxylin and eosin. The histological changes of the hair follicle tissue in the H&E-stained tissue sections were observed under an optical microscope. The number and depth of hair follicles and the thicknesses of dermis and subcutis were measured under an optical microscope, and the hair growth cycle was evaluated. The number of hair follicles was calculated by counting the number of hair follicles present in the subcutaneous tissue under a 100-magnification optical microscope. Changes in the depth of hair follicles and the thicknesses of dermis and subcutis were measured using the Image J program using a scale bar.

Assay [2] relates to DSS-induced enteritis model. The assay can be described thus: DSS enteritis (inflammatory bowel disease) model. It counts as in vivo, C57BL/6J mice. The following applies: vs PBS buffer group; for Il-6 gene expression in distal colon: RT-qPCR; for length of the colon: oral 3 days in recovery period; for body weight (weight gain rate): recovery period after DSS, oral 6 days. On the procedure: In order to confirm the efficacy of the peptides of the present invention for preventing and treating inflammatory bowel disease, an experiment was conducted using an animal model of enteritis. As the enteritis model, enteritis was induced by dissolving DSS in drinking water at a concentration of 1.2% and then administered to 10-week-old specific pathogen free (SPF) male C57BL/6J mice through the drinking water for 6 days, and then the drinking water was replaced with water to give a recovery period. During the recovery period, PEP002, PEP003, PEP004, or PEP005 was dissolved in PBS buffer at a concentration of 4.3 μM and then orally administered to the mice by 150 μL per animal once a day at the same time, and the same volume of PBS buffer was orally administered to the control group. During the recovery period, oral administration was performed 6 times for 6 days to examine the rate of increase in body weight due to recovery from enteritis. In addition, in order to examine the length of the colon, the degree of inflammation in the colon, and the degree of recovery of the colon tissue, the test was terminated after oral administration 3 times for 3 days. At the end of the experiment, the length of the colon was measured, a part of the distal colon was rapidly cooled in liquid nitrogen, and RNA was extracted using Trizol. Reverse transcriptase was added to the obtained RNA and reacted to synthesize cDNA, and SYBR Green and primers were added to perform quantitative real-time PCR (RT-qPCR), and then the level of Il-6 gene expression was quantified. In addition, a part of the distal colon was fixed in 10% NBF at room temperature for 24 hours or more, and then embedded in paraffin to prepare a 5 μm-thick section, and the section was stained with hematoxylin and eosin (H&E). The H&E-stained tissue sections were observed under an optical microscope and the histopathological degree of enteritis was evaluated using a histologic colitis scoring system (Table 4). [table]

In assay [3] the test system is LPS-induced cognitive and memory disorder mice. In words: Novel object recognition test in LPS-induced cognitive/memory disorder model. The format is in vivo, C57BL/6J mice. The following applies: oral; LPS 250 μg/kg/day for 7 days; vs control group. On the procedure:
LPS was intraperitoneally injected to C57BL/6J male mice at 250 μg/kg/day daily for 7 days to induce cognitive and memory disorders. Amuc_1409, a protein derived from Akkermansia muciniphila, was orally administered to the mice by 5 μg daily from one week before LPS administration until the cognitive and memory test was performed. PEP002, PEP003, PEP004, or PEP005 was dissolved in PBS buffer at a concentration of 2.4 μM and then orally administered to the mice by 150 μL per animal daily at the same time once a day from 3 days before LPS administration until the cognitive and memory test was performed. To the control group (vehicle), PBS was orally administered in the same volume.
In order to test the effect of improving cognitive function in mice with cognitive and memory disorder administered with Amuc_1409 or PEP002, PEP003, PEP004, or PEP005, a novel object recognition test was performed. When the object seen 24 hours ago and a novel object were provided, the exploration time and the number of explorations for the novel object were measured to test cognition and memory.

Another assay relates to naturally aged mice. In words: NORT and Y-maze alteration test in naturally aged mice. The format is in vivo, C57BL6/J mice. The following applies: oral; for spontaneous alteration, Y-maze alteration test: 0.2 μg daily 5 days a week for 8 weeks, vs PBS buffer. On the procedure: An experiment was conducted to verify the efficacy of the peptides of the present invention in an animal model of cognitive/memory disorder due to natural aging.
Amuc_1409 was orally administered to 16.5-month-old male mice by 4.5 μg daily 5 days a week for 8 weeks, and PEP002, PEP003, PEP004, or PEP005 was dissolved in PBS buffer at a concentration of 2.4 μM and then orally administered to 16-month-old male mice by 150 μL per animal at the same time once a day for 3 weeks. To the control group (vehicle), PBS was orally administered in the same volume.
In the case of the groups administered with the novel tetrapeptides and tripeptides (PEP006 to PEP013), each peptide was orally administered to 19-month-old female C57BL6/J mice by 0.2 μg daily 5 days a week for 8 weeks. At this time, the peptide was dissolved in PBS buffer and orally administered to the mice at 0.2 μg/150 μL per animal at the same time once a day. To the vehicle group, PBS was orally administered in the same volume. At this time, 4-month-old female C57BL6/J mice were used as a young control group.
A novel object recognition test (NORT) was performed to test the effect of improving cognitive function in naturally aged mice. When the object seen 24 hours ago and a novel object were provided, the exploration time and the number of explorations for the novel object were measured to test cognition and memory. In addition, a Y-maze alteration test was performed to confirm the effect of enhancing spatial perception and memory. In the Y-maze alteration test, spontaneous alteration (%) was evaluated by measuring the order of entering each Y-shaped maze (A, B and C). […] The spontaneous alteration was calculated and expressed as the total number of alterations/(total number of entries−2)×100.

Setting [4] is: day 28 after application, 30 μM topical.

Take AIS [PEP013]: the “proportion of the area where hair grew out to the total area (hair growth score)” value (“proportion … (hair growth score)” below) in assay [1] (setting [4]) is recorded as “tended to increase”.

With GAY [PEP005], in assay [2], the “Il-6 gene expression in distal colon” value is “significantly decreased”, the “length of the colon” value is “significantly increased”, the “body weight (weight gain rate)” value is “significantly increased” and the “degree of crypt damage (H&E)” value is listed as “significantly decrease”. Moreover, the “degree or extent of intestinal inflammation (H&E)” value (shortened to “degree or extent”) in assay [2] is given as “decreased”. In addition, the “memory and cognitive function, novel object recognition test” value (from here on “memory and cognitive function”) in assay [3] is “improved”.

Turning to AQS [PEP011], the “proportion … (hair growth score)” value in assay [1] (setting [4]) is recorded as “tended to increase”.

With VGAY (PEP010), the “spontaneous alteration, Y-maze alteration test” value in the assay on naturally aged mice is on record as “significantly improved”.

In the case of KGAY (PEP003), in assay [2], the “Il-6 gene expression in distal colon” value is listed as “significantly decreased”, the “length of the colon” value is reported as “tended to increase”, the “body weight (weight gain rate)” value is reported as “tended to increase” and the “degree of crypt damage (H&E)” value was “significantly decrease”. For the same molecule, the “degree or extent” value in assay [2] was “decreased”. In addition, in assay [3], the “memory and cognitive function” value is reported as “improved”.

Consider AVSSI (PEP002), for which, in assay [2], the “Il-6 gene expression in distal colon” value was “significantly decreased”, the “length of the colon” value was “significantly increased”, the “body weight (weight gain rate)” value is given as “tended to increase” and the “degree of crypt damage (H&E)” value is reported as “significantly decrease”. The “degree or extent” value in assay [2] is given as “decreased”. For the same molecule, the “memory and cognitive function” value in assay [3] is reported as “improved”.

On to AVS (AVSSIKGAY) [PEP004], for which, in assay [2], the “Il-6 gene expression in distal colon” value is recorded as “significantly decreased”, the “length of the colon” value is “significantly increased”, the “body weight (weight gain rate)” value is “significantly increased” and the “degree of crypt damage (H&E)” value is “significantly decrease”. The “degree or extent” value in assay [2] was “decreased”. Further, the “memory and cognitive function” value in assay [3] is recorded as “improved”.

Turning to IGAY (PEP008), the “proportion … (hair growth score)” value in assay [1] (setting [4]) was “tended to increase”. The “spontaneous alteration, Y-maze alteration test” value with naturally aged mice is “significantly improved”.

With RGAY (PEP007), the “proportion … (hair growth score)” value in assay [1] (setting [4]) was “tended to increase”.

In the case of AGS [PEP012], the “proportion … (hair growth score)” value in assay [1] (setting [4]) is given as “tended to increase”.

For the molecule SGAY (PEP009), the “proportion … (hair growth score)” value in assay [1] (setting [4]) is “tended to increase”.

On to AGAY (PEP006), for which, in assay [1] (setting [4]), the “proportion … (hair growth score)” value is listed as “tended to increase”.

B1: Amuc_1409: SEQ ID NO: 15, functional fragment obtained by eliminating the leader sequence from SEQ ID NO: 14; protein derived from Akkermansia muciniphila (protein)
chain: IPESSVPAAAVSSIKGAYPNAGPIEWDSEMHGMERIYEAEFRINGFQFDVKIAPDGKIVRIKEEIAASSLPEAVRASVLKRYPGCRIKEAEKITEGELVRYKVEVADSRDDYDVLIAPDGNILHVDR
modifications: Amuc_1409_fragment
notes: protein derived from Akkermansia muciniphila
For the molecule B1, in assay [1] (H&E), the “depth of the hair follicle” value is “significantly increased”, the “number of hair follicles present in the subcutaneous fat layer” value is recorded as “significantly increased”, the “proportion of hair in the anagen phase” value is listed as “significantly increased” and the thickness of dermis result is “significantly increased”. Also, in assay [1] (H&E), the thickness of subcutis entry is on record as “significantly increased”. For the same molecule, the “proportion … (hair growth score)” value in assay [1] (day 21 after application, 3.2 μM topical) was “significantly increased”. Besides, the “memory and cognitive function” value in assay [3] is given as “improved”. In the assay on naturally aged mice (naturally aged mice, vs control group), the “cognition and memory, novel object recognition test” value is “significantly improved or tended to be improved”.

Source of the values: patent US20240209022A1, “NOVEL PEPTIDE HAVING ANTI-INFLAMMATORY AND TISSUE REGENERATIVE ACTIONS” (KOREA RESEARCH INSTITUTE OF BIOSCIENCE AND BIOTECHNOLOGY, priority 2020, published 2024).
